One series relates to A. fumigatus VKM F-37. Kind of series: Disc-diffusion antifungal assay. The series is classed as cell-based, Aspergillus fumigatus. To be noted: 40 µg/disc.
The next series deals with A. fumigatus 390 m. The experiment in a line: Disc-diffusion antifungal assay. Particulars: 40 µg/disc, pathogenic clinical isolate. The class given is cell-based, Aspergillus fumigatus. (Agar diffusion results depend on both activity and mobility in agar.)
The test system of series [1] is clinical isolates of Candida. Kind of series: Disc-diffusion antifungal assay, clinical yeast isolates. The class given is cell-based. To be noted: range over clinical isolates of Candida (Figure S2).
For another series, the system named is C. laurentii 325m. The experiment in a line: Broth microdilution MIC and MFC (CLSI). The class given is cell-based, Cr. laurentii. Background: In broth dilution the organism is exposed to a series of concentrations in liquid medium.
In series [2] the test system is K-562 (leukemia cell line). Kind of series: MTT cytotoxicity assay. The series is classed as cell-based. Particulars: 72 h, three experiments, each in triplicate. Background: Tetrazolium dyes change colour on reduction, which living cells bring about.
Experimental: Experiments for determining the cytotoxic activity of the compound in MTT assays were performed as previously described [24]. The following tumor cell lines were used for this study: HCT-116 (colon cancer cell line), B16 (mouse melanoma cell line), K-562 (leukemia cell line), MDA-MB-231 (breast cancer line), and MCF-7 (breast cancer cell). […] The cell lines were cultured in Dulbecco modified Eagle’s medium supplemented with 5% fetal calf serum, 2 mM Lglutamine, 100 U/mL penicillin, and 100 mg/mL streptomycin at 37 °C, 5% CO2 in a humidified atmosphere. Experiments were carried out on cells in the logarithmic phase of growth. The peptide was dissolved in DMSO as a 10 mM stock solution, followed by serial dilutions in water immediately before the experiment. Briefly, cells (5 × 10^3 in 190 mL of culture medium) were plated in a 96-well plate and treated with 0.1% DMSO (blank control) or with 10 mM of the peptide (0.10‒50 μM; each concentration in duplicate) for 72 h. After incubation with peptide, 20 mL of aqueous MTT solution (3-(4,5-dimethylthiazol-2-yl)-2,5-diphenyltetrazolium bromide, 5 mg/mL) were added into each well for 2‒3 h. Formazan was dissolved in DMSO, and the absorbance at 570 nm was measured. […] All the experiments were repeated three times, each time in triplicate.
A further series concerns human erythrocytes. Kind of series: Hemolytic activity. Particulars: for hemolytic activity (in words): concentrations of 0–20 μM. The series is classed as cell-based. As to the method: Erythrocytes were isolated from the peripheral blood of healthy donors after incubation at 4 °C for 2–3 h. All the donors are males, 35–38 years old. All of them have approved to collect blood samples, and the authors have permissions filled. All the blood samples have been destroyed after the experiments finished. The red blood cell suspension (100 μL) was pelleted, washed twice with saline, then the pellet was resuspended in 500 μL saline or distilled water (positive control of hemolysis). The compounds were added (final concentration of 20 μM). The samples were incubated for 1 h at 37 °C and centrifuged at 2000 rpm for 1.5 min. The OD of supernatants was measured on a Multiscan spectrophotometer FC (Thermo Scientific, Waltham, MA, USA) at a wavelength of 540 nm. The percent hemolysis was calculated relative to the positive control, taken as 100%.
Erythrocytes were isolated from the human blood: On the day of the study, blood was taken from the donor’s cubital vein into a test tube with an anticoagulant. The blood was incubated at 4 °C for 2‒3 h. A suspension of erythrocytes (100 μL) was diluted with a physiological buffer (pH 7.2) to a total volume of 500 μL. Solutions of the test substances with an initial concentration of […] (DMSO) were diluted with a PBS buffer (1:10). The resulting solutions were introduced into Eppendorf tubes in the amounts required to create the studied concentration (5, 10, or 20 μM). A mixture of PBS with erythrocytes was added to a total volume of 200 μL. The control (C) was a mixture of erythrocytes with H2O (100% of hemolysis). The intact control solution (I) was a mixture of erythrocytes with the PBS and solvent (DMSO). The antibiotic gramicidin S (Gram S) was used as a control sample with active hemolysis. The mixture was incubated for 1 h at 37 °C. The measurement of the optical density of the supernatants was carried out on a BioTek ELx800 automatic microplate photometer (USA) at 570 nm. The optical density of the liquid above the sediment in the control sample with H2O was taken as 100%.

As usually defined, the MIC is the lowest concentration that inhibits growth of the organism. For orientation: IC50 means the concentration at which inhibition is half-maximal. Read a low IC50 as greater potency.

With “Methyldecanoyl-MePro-AHMOD-Ala-Aib-Ile-Iva-βAla-Alaol-Glyol [EmiA, emericellipsin A, nonribosomal lipopeptaibol, major compound of E. alkalina VKPM F1428]”, the “Zone of Inhibition” value worked out at 20 ± 0.3 mm in the series with A. fumigatus VKM F-37 and 20 ± 0.40 mm with A. fumigatus 390 m. Also, the inhibition zones in series [1] was 20–25 mm. This substance displayed a minimal inhibitory concentration (MIC) with C. laurentii 325m (C. laurentii 325m clinical isolate, RPMI 1640 pH 7.0, 35 °C, 24 h) of 0.5 µg/mL. The substance also yielded an MFC against C. laurentii 325m (C. laurentii 325m, lowest concentration causing 95% death) of 0.5 µg/mL. Moreover, the IC50 in series [2] was found to be 1000 ± 140 nM. For the same substance, the hemolysis result with human erythrocytes (20 μM, 1 h, 37 °C, relative to H2O control = 100%, OD 540 nm or 570 nm, triplicate, mean) is “approximately 12.6%”. Moreover, the results for the “hemolytic activity (in words)” value with human erythrocytes and in the series with human erythrocytes (listed as Emericellipsin A) were “no hemolytic activity” and “negligible hemolytic activity”, respectively.
